Target: T1, HGFR (Homo sapiens, UniProt P08581)
T1 construct: purchased Upstate 14-526
Assay: HGFR continuous-coupled spectrophotometric assay
Format: biochemical
Conditions: Table 3, column 'Ki (μM) or I (%)': cells without % sign; read-out: Ki

T1 sequence (P08581 974-1390 limits assumed): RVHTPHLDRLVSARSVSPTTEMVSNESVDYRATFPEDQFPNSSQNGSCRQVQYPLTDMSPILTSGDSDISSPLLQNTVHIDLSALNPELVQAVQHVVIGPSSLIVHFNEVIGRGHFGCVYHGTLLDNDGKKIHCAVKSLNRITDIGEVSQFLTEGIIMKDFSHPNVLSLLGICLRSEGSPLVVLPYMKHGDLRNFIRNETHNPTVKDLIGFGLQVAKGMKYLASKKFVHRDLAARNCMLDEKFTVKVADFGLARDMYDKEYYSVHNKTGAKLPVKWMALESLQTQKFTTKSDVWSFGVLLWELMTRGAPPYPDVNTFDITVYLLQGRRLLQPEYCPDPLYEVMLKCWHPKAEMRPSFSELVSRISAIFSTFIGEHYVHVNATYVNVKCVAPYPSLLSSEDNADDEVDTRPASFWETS

Row | Ki [µM] | Structure (SMILES)
1 | 0.513 | CC(Oc1cc(-c2ccc(=O)n(CCC3CCCN3C)c2)cnc1N)c1c(Cl)ccc(F)c1Cl (centres unmarked) [Example I-639, 6′-Amino-5′-[1-(2,6-dichloro-3-fluoro-phenyl)-ethoxy]-1-[2-(1-methyl-pyrrolidin-2-yl)-ethyl]-1H-[3,3′]bipyridinyl-6-one]
2 | 0.0432 | CC(Oc1cc(-c2ccc(O)nc2)cnc1N)c1c(Cl)ccc(F)c1Cl (centres unmarked) [Example I-643, 6′-Amino-5′-[1-(2,6-dichloro-3-fluoro-phenyl)-ethoxy]-1H-[3,3′]-bipyridinyl-6-one]
3 | 0.196 | CC(Oc1cc(-c2cncc(Br)c2)cnc1N)c1c(Cl)ccc(F)c1Cl (centres unmarked) [Example I-644, 5′-Bromo-5-[1-(2,6-dichloro-3-fluoro-phenyl)-ethoxy]-[3,3′]bipyridinyl-6-ylamine]
4 | 0.157 | CC(Oc1cc(-c2ccc(N(C)C)cc2)cnc1N)c1c(Cl)ccc(F)c1Cl (centres unmarked) [Example I-645, 3-[1-(2,6-Dichloro-3-fluoro-phenyl)-ethoxy]-5-(4-dimethylamino-phenyl)-pyridin-2-ylamine]
5 | 0.099 | COc1ncccc1-c1cnc(N)c(OC(C)c2c(Cl)ccc(F)c2Cl)c1 (centres unmarked) [Example I-646, 5-[1-(2,6-Dichloro-3-fluoro-phenyl)-ethoxy]-2′-methoxy-[3,3′]bipyridinyl-6-ylamine]
6 | 0.166 | CC(Oc1cc(-c2ccc3[nH]ccc3c2)cnc1N)c1c(Cl)ccc(F)c1Cl (centres unmarked) [Example I-647, 3-[1-(2,6-Dichloro-3-fluoro-phenyl)-ethoxy]-5-(1H-indol-5-yl)-pyridin-2-ylamine]
7 | 0.553 | CCC(Oc1cc(-c2ccc(C(=O)N3C[C@@H](C)N[C@@H](C)C3)cc2)cnc1N)c1c(Cl)cccc1Cl (some centres unmarked) [Example I-648, (4-{6-Amino-5-[1-(2,6-dichloro-phenyl)-propoxy]-pyridin-3-yl}-phenyl)-(3,5-dimethyl-piperazin-1-yl)-methanone]

Same assay, conditions: at 50 nM; Table 5, library procedure 40; read-out: % inhibition (percent c-MET inhibition)

Row | inhibition at 0.05 µM [%] | Structure (SMILES)
8 | 58 | CC(Oc1cc(-c2ccc(C(=O)NCCC3CCCN3C)cc2)cnc1N)c1c(Cl)ccc(F)c1Cl [Example L-1]
9 | 59 | CC(Oc1cc(-c2ccc(C(=O)NCCCN3CCOCC3)cc2)cnc1N)c1c(Cl)ccc(F)c1Cl [Example L-2]
10 | 63 | CC(Oc1cc(-c2ccc(C(=O)NCCCN3CCN(C)CC3)cc2)cnc1N)c1c(Cl)ccc(F)c1Cl [Example L-3]
11 | 47 | CC(Oc1cc(-c2ccc(C(=O)NC3CCN(Cc4ccccc4)CC3)cc2)cnc1N)c1c(Cl)ccc(F)c1Cl [Example L-4]
12 | 68 | CC(Oc1cc(-c2ccc(C(=O)NCCCO)cc2)cnc1N)c1c(Cl)ccc(F)c1Cl [Example L-5]
13 | 69 | CC(Oc1cc(-c2ccc(C(=O)NCCN3CCCCC3)cc2)cnc1N)c1c(Cl)ccc(F)c1Cl [Example L-6]
14 | 66 | CC(CO)NC(=O)c1ccc(-c2cnc(N)c(OC(C)c3c(Cl)ccc(F)c3Cl)c2)cc1 [Example L-7]
15 | 72 | CC(Oc1cc(-c2ccc(C(=O)NCCCN3CCCCC3C)cc2)cnc1N)c1c(Cl)ccc(F)c1Cl [Example L-8]
16 | 64 | CC(Oc1cc(-c2ccc(C(=O)NCc3cccnc3)cc2)cnc1N)c1c(Cl)ccc(F)c1Cl [Example L-9]
17 | 67 | CC(Oc1cc(-c2ccc(C(=O)NCc3ccccn3)cc2)cnc1N)c1c(Cl)ccc(F)c1Cl [Example L-10]
18 | 67 | CC(Oc1cc(-c2ccc(C(=O)NCCc3ccccn3)cc2)cnc1N)c1c(Cl)ccc(F)c1Cl [Example L-11]
19 | 76 | CC(Oc1cc(-c2ccc(C(=O)NCCOCCO)cc2)cnc1N)c1c(Cl)ccc(F)c1Cl [Example L-13]
20 | 72 | CC(Oc1cc(-c2ccc(C(=O)N[C@H]3CCN(Cc4ccccc4)C3)cc2)cnc1N)c1c(Cl)ccc(F)c1Cl (stereo partly drawn) [Example L-14]
21 | 67 | CC(Oc1cc(-c2ccc(C(=O)N[C@@H]3CCN(Cc4ccccc4)C3)cc2)cnc1N)c1c(Cl)ccc(F)c1Cl (stereo partly drawn) [Example L-15]
22 | 83 | CC(Oc1cc(-c2ccc(C(=O)NCCCN(C)C)cc2)cnc1N)c1c(Cl)ccc(F)c1Cl [Example L-16]
23 | 76 | CC(Oc1cc(-c2ccc(C(=O)NC3CCN(Cc4ccccc4)C3)cc2)cnc1N)c1c(Cl)ccc(F)c1Cl [Example L-17]
24 | 66 | CC(Oc1cc(-c2ccc(C(=O)NCCc3ccccc3)cc2)cnc1N)c1c(Cl)ccc(F)c1Cl [Example L-18]
25 | 69 | C[C@H](Oc1cc(-c2ccc(C(=O)N[C@H](CO)c3ccccc3)cc2)cnc1N)c1c(Cl)ccc(F)c1Cl [Example L-20]
26 | 86 | CC(Oc1cc(-c2ccc(C(=O)NCC(N)=O)cc2)cnc1N)c1c(Cl)ccc(F)c1Cl [Example L-21]
27 | 64 | COc1cc(CNC(=O)c2ccc(-c3cnc(N)c(OC(C)c4c(Cl)ccc(F)c4Cl)c3)cc2)ccc1O [Example L-22]
28 | 71 | CC(=O)NCCNC(=O)c1ccc(-c2cnc(N)c(OC(C)c3c(Cl)ccc(F)c3Cl)c2)cc1 [Example L-24]
29 | 77 | CC(Oc1cc(-c2ccc(C(=O)NCC(C)(C)CN(C)C)cc2)cnc1N)c1c(Cl)ccc(F)c1Cl [Example L-25]
30 | 92 | CC(Oc1cc(-c2ccc(C(=O)N3CCC(N(C)C)CC3)cc2)cnc1N)c1c(Cl)ccc(F)c1Cl [Example L-26]
31 | 74 | CC(Oc1cc(-c2ccc(C(=O)NCc3ccncc3)cc2)cnc1N)c1c(Cl)ccc(F)c1Cl [Example L-27]
32 | 64 | CC(Oc1cc(-c2ccc(C(=O)N3CCC(O)(c4ccccc4)CC3)cc2)cnc1N)c1c(Cl)ccc(F)c1Cl [Example L-28]
33 | 86 | CC(Oc1cc(-c2ccc(C(=O)N3CCC(O)CC3)cc2)cnc1N)c1c(Cl)ccc(F)c1Cl [Example L-29]
34 | 80 | CCN1CCCC1CNC(=O)c1ccc(-c2cnc(N)c(OC(C)c3c(Cl)ccc(F)c3Cl)c2)cc1 [Example L-30]
35 | 92 | CC(Oc1cc(-c2ccc(C(=O)N(C)C3CCN(C)CC3)cc2)cnc1N)c1c(Cl)ccc(F)c1Cl [Example L-32]

Row | inhibition at 0.05 µM [%] | Structure (SMILES)
36 | 63 | CC(Oc1cc(-c2ccc(C(=O)N3CCN(c4ccccn4)CC3)cc2)cnc1N)c1c(Cl)ccc(F)c1Cl [Example L-33]
37 | 62 | COc1ccc(CNC(=O)c2ccc(-c3cnc(N)c(OC(C)c4c(Cl)ccc(F)c4Cl)c3)cc2)cc1OC [Example L-34]
38 | 55 | CC(Oc1cc(-c2ccc(C(=O)NCCc3ccccc3F)cc2)cnc1N)c1c(Cl)ccc(F)c1Cl [Example L-35]
39 | 62 | CC(Oc1cc(-c2ccc(C(=O)N3CCN(Cc4ccccc4)CC3)cc2)cnc1N)c1c(Cl)ccc(F)c1Cl [Example L-36]
40 | 75 | CC(Oc1cc(-c2ccc(C(=O)N(C)CCc3ccccn3)cc2)cnc1N)c1c(Cl)ccc(F)c1Cl [Example L-37]
41 | 86 | CC(C)NC(=O)CN1CCN(C(=O)c2ccc(-c3cnc(N)c(OC(C)c4c(Cl)ccc(F)c4Cl)c3)cc2)CC1 [Example L-38]
42 | 77 | CC(Oc1cc(-c2ccc(C(=O)N3CCCN(C)CC3)cc2)cnc1N)c1c(Cl)ccc(F)c1Cl [Example L-39]
43 | 55 | CC(Oc1cc(-c2ccc(C(=O)N3CCC(Cc4ccccc4)CC3)cc2)cnc1N)c1c(Cl)ccc(F)c1Cl [Example L-40]
44 | 84 | CCN(Cc1ccncc1)C(=O)c1ccc(-c2cnc(N)c(OC(C)c3c(Cl)ccc(F)c3Cl)c2)cc1 [Example L-41]
45 | 85 | CCN(CC)CCN(C)C(=O)c1ccc(-c2cnc(N)c(OC(C)c3c(Cl)ccc(F)c3Cl)c2)cc1 [Example L-43]
46 | 55 | CCN(CC)C(=O)C1CCCN(C(=O)c2ccc(-c3cnc(N)c(OC(C)c4c(Cl)ccc(F)c4Cl)c3)cc2)C1 [Example L-44]
47 | 78 | CC(Oc1cc(-c2ccc(C(=O)N3CCN(CC(=O)N4CCCC4)CC3)cc2)cnc1N)c1c(Cl)ccc(F)c1Cl [Example L-46]
48 | 83 | C[C@H](Oc1cc(-c2ccc(C(=O)N3CCCC[C@@H]3CCO)cc2)cnc1N)c1c(Cl)ccc(F)c1Cl [Example L-47]
49 | 74 | CC(Oc1cc(-c2ccc(C(=O)N3CCN(CCCO)CC3)cc2)cnc1N)c1c(Cl)ccc(F)c1Cl [Example L-49]
50 | 73 | CC(Oc1cc(-c2ccc(C(=O)NCC(C)(C)CO)cc2)cnc1N)c1c(Cl)ccc(F)c1Cl [Example L-50]
51 | 73 | C[C@H](Oc1cc(-c2ccc(C(=O)N[C@H]3CC[C@H](O)CC3)cc2)cnc1N)c1c(Cl)ccc(F)c1Cl [Example L-51]
52 | 66 | CCOC(=O)N1CCC(NC(=O)c2ccc(-c3cnc(N)c(OC(C)c4c(Cl)ccc(F)c4Cl)c3)cc2)CC1 [Example L-52]
53 | 95 | COCCCNC(=O)c1ccc(-c2cnc(N)c(OC(C)c3c(Cl)ccc(F)c3Cl)c2)cc1 [Example L-54]
54 | 83 | CC(O)CNC(=O)c1ccc(-c2cnc(N)c(OC(C)c3c(Cl)ccc(F)c3Cl)c2)cc1 [Example L-56]
55 | 76 | Cc1cnc(CNC(=O)c2ccc(-c3cnc(N)c(OC(C)c4c(Cl)ccc(F)c4Cl)c3)cc2)cn1 [Example L-57]
56 | 78 | CC(Oc1cc(-c2ccc(C(=O)NCC(F)(F)F)cc2)cnc1N)c1c(Cl)ccc(F)c1Cl [Example L-58]
57 | 81 | CC(Oc1cc(-c2ccc(C(=O)NCC3(O)CCCCC3)cc2)cnc1N)c1c(Cl)ccc(F)c1Cl [Example L-59]
58 | 83 | CC(Oc1cc(-c2ccc(C(=O)NCCCN3CCCC3=O)cc2)cnc1N)c1c(Cl)ccc(F)c1Cl [Example L-60]
59 | 71 | CC(Oc1cc(-c2ccc(C(=O)NCCc3ccc(O)cc3)cc2)cnc1N)c1c(Cl)ccc(F)c1Cl [Example L-61]
60 | 94 | CCN(CCO)C(=O)c1ccc(-c2cnc(N)c(OC(C)c3c(Cl)ccc(F)c3Cl)c2)cc1 [Example L-62]
61 | 85 | CC(Oc1cc(-c2ccc(C(=O)NCCN(C)C)cc2)cnc1N)c1c(Cl)ccc(F)c1Cl [Example L-64]
62 | 79 | CCN1CC(NC(=O)c2ccc(-c3cnc(N)c(OC(C)c4c(Cl)ccc(F)c4Cl)c3)cc2)CN1CC [Example L-65]

Reference: US20050009840A1 (SUGEN, INC., priority 2003, published 2005)
